In patent US11731943B2, “Therapeutic compounds, compositions and methods of use thereof” (priority 2016, dated 2023):
pIC50, pKi: −log10 of the molar value. Read-outs that look alike come from different tables or passages of the source.

Columns and labels:
[1] = target: isolated recombinant JAK1 kinase domain (Homo sapiens (Human), UniProt P23458); experiment: JAK1 enzyme assay (Caliper LabChip, Ki); assay type: biochemical
Outline: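 Ki derived via Morrison tight-binding model, ATP-competitive correction applied. Read-out: product/total ratio of a 5-carboxyfluorescein-tagged JAK3 peptide separated on Caliper LabChip after phosphorylation by isolated human JAK1 kinase domain (22 °C, 30 min; EDTA quench, 50 mM final).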

[2] = test system: JAK1-dependent STAT6 phosphorylation downstream of IL-13 stimulation in BEAS-2B human bronchial epithelial cells; experiment: JAK1 pathway assay in BEAS-2B cells (IL-13-pSTAT6, MSD); assay type: cell-based
[3] = target: isolated recombinant JAK2 kinase domain (Homo sapiens (Human), UniProt O60674); experiment: JAK2 enzyme assay (Caliper LabChip, Ki); assay type: biochemical
Outline: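 Caliper LabChip readout of phosphorylated product as a fraction of total substrate, a fluorescently N-terminally labelled JAK3-derived peptide. Isolated human JAK kinase domains were incubated 30 min at 22 °C before EDTA quench (50 mM final).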

[4] = Homo sapiens, BEAS-2B, BEAS-2B cells, IL-13 stimulation, read-out: IL-13 p-STAT6 BEAS-2B IC50

Chain of isolated recombinant JAK1 kinase domain (P23458 875-1153): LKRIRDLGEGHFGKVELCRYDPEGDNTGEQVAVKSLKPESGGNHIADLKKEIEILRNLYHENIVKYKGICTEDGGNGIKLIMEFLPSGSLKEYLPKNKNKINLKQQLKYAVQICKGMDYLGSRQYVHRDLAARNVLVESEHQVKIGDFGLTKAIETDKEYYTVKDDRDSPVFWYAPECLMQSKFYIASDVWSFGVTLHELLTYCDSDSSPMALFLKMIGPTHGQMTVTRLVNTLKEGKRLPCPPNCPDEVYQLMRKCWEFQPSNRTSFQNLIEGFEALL
Chain of isolated recombinant JAK2 kinase domain (O60674 849-1124): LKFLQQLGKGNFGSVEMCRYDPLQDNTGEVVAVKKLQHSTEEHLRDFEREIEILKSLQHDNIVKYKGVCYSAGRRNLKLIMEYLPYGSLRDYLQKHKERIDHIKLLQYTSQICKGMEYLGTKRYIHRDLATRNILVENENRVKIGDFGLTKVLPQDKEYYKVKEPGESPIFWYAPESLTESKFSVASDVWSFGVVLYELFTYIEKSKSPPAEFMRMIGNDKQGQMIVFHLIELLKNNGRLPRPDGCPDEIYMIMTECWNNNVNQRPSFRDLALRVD

| SMILES | pKi ([1]; read-out: JAK1 Ki) | pIC50 [2, 4] | pKi [3] | pKi [1] | pIC50 ([2]; Homo sapiens, BEAS-2B, read-out: IL-13 p-STAT6 BEAS-2B IC50, BEAS-2B cells, IL-13 stimulation) | pIC50 ([2]; BEAS-2B cells, IL-13 stimulation, read-out: IL-13 p-STAT6 BEAS-2B IC50) |
| --- | --- | --- | --- | --- | --- | --- |
| N#CCC1(n2cc(C(N)=O)c(NC(=O)C3CC3)n2)CCN(Cc2cc(O)c(-c3ccccc3)cc2F)CC1 [Example 191, 1-[4-(cyanomethyl)-1-[(2-fluoro-5-hydroxy-4-phenyl-phenyl)methyl]-4-piperidyl]-3-(cyclopropanecarbonylamino) pyrazole-4-carboxamide] | 9.70 | 7.09 | 9.49 |  |  |  |
| Cc1c(CN2CCC(CC#N)(n3cc(C(N)=O)c(NC(=O)C4CC4C#N)n3)C(F)C2)ccc(-c2ccccc2)c1O (stereo not drawn) [Example 250, 3-[(2-cyanocyclopropanecarbonyl)amino]-1-[4-(cyanomethyl)-3-fluoro-1-[(3-hydroxy-2-methyl-4-phenyl-phenyl)methyl]-4-piperidyl]pyrazole-4-carboxamide; formic acid] | 9.51 | 7.10 | 9.08 |  |  |  |
| COC(=O)Nc1nn(C2(CC#N)CCN(Cc3ccc(-c4ccc(C)o4)cc3)CC2F)cc1C(N)=O (stereo not drawn) [Example 246, methyl N-[4-carbamoyl-1-[4-(cyanomethyl)-3-fluoro-1-[[4-(5-methyl-2-furyl)phenyl]methyl]-4-piperidyl]pyrazol-3-yl]carbamate] | 9.46 | 7.72 | 9.28 |  |  |  |
| N#CCC1(n2cc(C(N)=O)c(NC(=O)C3CC3C#N)n2)CCN(Cc2cc(O)c(-c3ccccc3)cc2F)CC1F (stereo not drawn) [Example 240, 3-[(2-cyanocyclopropanecarbonyl)amino]-1-[4-(cyanomethyl)-3-fluoro-1-[(2-fluoro-5-hydroxy-4-phenyl-phenyl)methyl]-4-piperidyl]pyrazole-4-carboxamide] | 9.72 | 7.15 | 9.54 |  |  |  |
| N#CCC1(n2cc(C(N)=O)c(NC(=O)C3CC3)n2)CCN(Cc2ccc(-c3ccc(C(F)(F)F)cc3)nc2)CC1 [Example 166, 1-[4-(cyanomethyl)-1-[[6-[4-(trifluoromethyl)phenyl]-3-pyridyl]methyl]-4-piperidyl]-3-(cyclopropanecarbonylamino) pyrazole-4-carboxamide] | 8.66 | 7.17 | 7.10 |  |  |  |
| N#CC[C@]1(n2cc(C(N)=O)c(NC(=O)C3CC3)n2)CC[C@@H](N2CC(F)(F)C2)CC1 [Example 178, 1-[1-(cyanomethyl)-4-(3,3-difluoroazetidin-1-yl)cyclohexyl]-3-(cyclopropanecarbonylamino) pyrazole-4-carboxamide] |  |  | 7.74 | 8.33 | 6.78 |  |
| COC(=O)Nc1nn(C2(CC#N)CCC(Nc3ccc(-c4ccco4)cc3)CC2)cc1C(N)=O (stereo not drawn) [Example 266, methyl N-[4-carbamoyl-1-[1-(cyanomethyl)-4-[4-(2-furyl)anilino]cyclohexyl]pyrazol-3-yl]carbamate] | 9.11 | 7.24 | 8.30 |  |  |  |
| CCOC1(C(F)(F)F)CN([C@H]2CC[C@@](CC#N)(n3cc(C(N)=O)c(NC(=O)C4CC4)n3)CC2)C1 (single isomer, unassigned) [Example 9] | 8.66 | 6.36 | 7.61 |  |  |  |
| COC(=O)Nc1nn(C2(CC#N)CCN(Cc3ccc(C4=CCCCC4)c(O)c3)CC2F)cc1C(N)=O (stereo not drawn) [Example 258, methyl N-[4-carbamoyl-1-[4-(cyanomethyl)-1-[[4-(cyclohexen-1-yl)-3-hydroxy-phenyl]methyl]-3-fluoro-4-piperidyl]pyrazol-3-yl]carbamate] | 9.47 | 7.47 | 9.54 |  |  |  |
| N#CC[C@]1(n2cc(C(N)=O)c(NC(=O)C3CC3)n2)CC[C@H](N2CC3(CCC3)C2)CC1 [Example 107] |  | < 6.00 | 7.37 | 8.48 |  |  |
| N#CCC1(n2cc(C(N)=O)c(NC(=O)C3CC3)n2)CCN(Cc2ccc(-c3ccc(Cl)cc3)cc2)CC1 [Example 147, 1-[1-[[4-(4-chlorophenyl)phenyl]methyl]-4-(cyanomethyl)-4-piperidyl]-3-(cyclopropanecarbonylamino) pyrazole-4-carboxamide] | 8.68 | 7.29 | 7.49 |  |  |  |
| COc1cc(CN2CCC(CC#N)(n3cc(C(N)=O)c(NC(=O)C4CC4)n3)CC2)ccc1-c1ccccc1 [Example 162, 1-[4-(cyanomethyl)-1-[(3-methoxy-4-phenyl-phenyl)methyl]-4-piperidyl]-3-(cyclopropanecarbonylamino) pyrazole-4-carboxamide] | 8.51 | 6.53 | 7.97 |  |  |  |
| Cc1cc(CN2CCC(CC#N)(n3cc(C(N)=O)c(NC(=O)C4CC4)n3)CC2)ccc1-c1ccccc1 [Example 160, 1-[4-(cyanomethyl)-1-[(3-methyl-4-phenyl-phenyl)methyl]-4-piperidyl]-3-(cyclopropanecarbonylamino) pyrazole-4-carboxamide] | 8.49 | 6.73 | 7.92 |  |  |  |
| N#CCC1(n2cc(C(N)=O)c(NC(=O)C3CC3)n2)CCN(Cc2ccc3c(c2)[nH]c2ccccc23)CC1 [Example 95] | 8.92 | 6.56 | 8.20 |  |  |  |
| COCc1cccc(-c2ccc(CN3CCC(CC#N)(n4cc(C(N)=O)c(NC(=O)C5CC5)n4)CC3)cc2)c1 [Example 157, 1-[4-(cyanomethyl)-1-[[4-[3-(methoxymethyl)phenyl]phenyl]methyl]-4-piperidyl]-3-(cyclopropanecarbonylamino) pyrazole-4-carboxamide] | 8.80 | 6.98 | 7.86 |  |  |  |
| N#CCC1(n2cc(C(N)=O)c(NC(=O)C3CC3C#N)n2)CCN(CC2CCC(c3ccccc3)CC2)CC1F (stereo not drawn) [Example 231, 3-[(2-cyanocyclopropanecarbonyl)amino]-1-[4-(cyanomethyl)-3-fluoro-1-[(4-phenylcyclohexyl)methyl]-4-piperidyl]pyrazole-4-carboxamide] | 9.44 |  | 8.08 |  |  | 7.72 |
| N#CCC1(n2cc(C(N)=O)c(NC(=O)C3CC3)n2)CCN(Cc2cnc(-c3ccccc3)cc2F)CC1 [Example 202, 1-[4-(cyanomethyl)-1-[(4-fluoro-6-phenyl-3-pyridyl)methyl]-4-piperidyl]-3-(cyclopropanecarbonylamino) pyrazole-4-carboxamide] | 9.26 | 7.13 | 9.13 |  |  |  |
| N#CCC1(n2cc(C(N)=O)c(NC(=O)C3CC3)n2)CCN(CC2CCC(c3ccccc3)CC2)CC1F (stereo not drawn) [Example 233, 1-[4-(cyanomethyl)-3-fluoro-1-[(4-phenylcyclohexyl)methyl]-4-piperidyl]-3-(cyclopropanecarbonylamino) pyrazole-4-carboxamide] | 9.52 | 7.41 | 9.35 |  |  |  |
| CCc1ccc(-c2ccc(CN3CCC(CC#N)(n4cc(C(N)=O)c(NC(=O)C5CC5)n4)CC3)cc2O)cc1 [Example 189, 1-[4-(cyanomethyl)-1-[[4-(4-ethylphenyl)-3-hydroxy-phenyl]methyl]-4-piperidyl]-3-(cyclopropanecarbonylamino) pyrazole-4-carboxamide] | 9.48 | 7.42 | 8.89 |  |  |  |
| COC(=O)Nc1nn(C2(CC#N)CCC(N3CC(F)(c4ccccc4)C3)CC2)cc1C(N)=O (stereo not drawn) [Example 243, methyl N-[4-carbamoyl-1-[1-(cyanomethyl)-4-(3-fluoro-3-phenyl-azetidin-1-yl)cyclohexyl]pyrazol-3-yl]carbamate] | 8.57 | 7.00 | 7.85 |  |  |  |
| C#Cc1ccc(CN2CCC(CC#N)(n3cc(C(N)=O)c(NC(=O)C4CC4)n3)C(F)C2)cc1 (stereo not drawn) [Example 260, 1-[4-(cyanomethyl)-1-[(4-ethynylphenyl)methyl]-3-fluoro-4-piperidyl]-3-(cyclopropanecarbonylamino) pyrazole-4-carboxamide] | 9.60 | 7.49 | 9.46 |  |  |  |
| CC1(Oc2ccc(C(F)(F)F)cc2)CN(C2CCC(CC#N)(n3cc(C(N)=O)c(NC(=O)C4CC4)n3)CC2)C1 (stereo not drawn) [Example 295, 1-[1-(cyanomethyl)-4-[3-methyl-3-[4-(trifluoromethyl)phenoxy]azetidin-1-yl]cyclohexyl]-3-(cyclopropanecarbonylamino) pyrazole-4-carboxamide] | 8.70 | 7.07 | 8.54 |  |  |  |
| COC(=O)Nc1nn(C2(CC#N)CCN(Cc3cnc(-c4ccccc4)cc3F)CC2F)cc1C(N)=O (stereo not drawn) [Example 251, methyl N-[4-carbamoyl-1-[4-(cyanomethyl)-3-fluoro-1-[(4-fluoro-6-phenyl-3-pyridyl)methyl]-4-piperidyl]pyrazol-3-yl]carbamate] | 9.47 | 7.52 | 9.52 |  |  |  |
| CCC1(n2cc(C(N)=O)c(Nc3ccc(S(=O)(=O)C(F)F)cc3)n2)CCN(Cc2cc(O)ccc2F)CC1 [Example 301, 3-((4-((Difluoromethyl)sulfonyl)phenyl)amino)-1-(4-ethyl-1-(2-fluoro-5-hydroxybenzyl)piperidin-4-yl)-1H-pyrazole-4-carboxamide] | 8.82 | 7.00 | 8.70 |  |  |  |
| CC(OC(=O)N1CCC(CC#N)(n2cc(C(N)=O)c(NC(=O)C3CC3)n2)CC1)C1CC1 (stereo not drawn) [Example 182, 1-cyclopropylethyl 4-[4-carbamoyl-3-(cyclopropanecarbonylamino)pyrazol-1-yl]-4-(cyanomethyl)piperidine-1-carboxylate] | 8.33 | 6.17 | 7.29 |  |  |  |
